The values that follow come from patent US9783532B2, “Molecules having certain pesticidal utilities, and intermediates, compositions, and processes related thereto” (Dow AgroSciences LLC, priority 2013, dated 2017).

Usually mortality stands for the percentage killed.

The test system of test [1] is Beet Armyworm (Spodoptera exigua) ("BAW"). Description: Bioassay on beet armyworm (BAW), 128-well diet tray assay. Type of test: in vivo. The following applies: for pest or weed control at 50 µg/cm2: Table ABC (FB), activity rating class, read-out: BAW (Biological Results, Insect species); for mortality at 50 µg/cm2: 168 h, 50 μg/cm^2 on artificial diet, second instar BAW larvae, 25° C., five to seven days, average of eight wells, read-out: BAW % Control (or Mortality) rating. In outline: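 Percent mortality, averaged across eight wells, was read after five to seven days at 25° C. under 14:10 light-dark. Each well held one to five second-instar larvae on artificial diet that had been treated with 50 μg/cm^2 compound in 90:10 acetone-water and dried.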

The subject of test [2] is Cabbage Looper (Trichoplusia ni) ("CL"). The test is described as follows: Bioassay on cabbage looper (CL), 128-well diet tray assay. Type of test: in vivo. The following applies: for pest or weed control at 50 µg/cm2: Table ABC (FB), activity rating class, read-out: CL (Biological Results, Insect species); for mortality at 50 µg/cm2: 168 h, 50 μg/cm^2 on artificial diet, second instar CL larvae, 25° C., five to seven days, average of eight wells, read-out: CL % Control (or Mortality) rating. In outline: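 Percent mortality, averaged across eight replicate wells, was read after five to seven days at 25 °C under a 14:10 photoperiod. Each well held one to five second-instar T. ni on diet carrying a dried 50 μg/cm^2 dose applied in acetone-water 90:10.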

For `COc1ccc(N2C(=O)CS/C2=N\C(=O)NCCCCc2cccc(-c3ncn(-c4ccc(OC(F)(F)F)cc4)n3)c2)c(C)c1` [FB38, (Z)-1-(3-(4-methoxy-2-methylphenyl)-4-oxothiazolidin-2-ylidene)-3-(4-(3-(1-(4-(trifluoromethoxy)phenyl)-1H-1,2,4-triazol-3-yl)phenyl)butyl)urea], the pest or weed control at 50 µg/cm2 in test [1] lay within 0 to 50%; in test [2], 50 to 100%.
For `CC(C)c1ccc(Cl)cc1N1C(=O)CS/C1=N\C(=O)NCCCCc1cccc(-c2ncn(-c3ccc(OC(F)(F)F)cc3)n2)c1` [FB39, (Z)-1-(3-(5-chloro-2-isopropylphenyl)-4-oxothiazolidin-2-ylidene)-3-(4-(3-(1-(4-(trifluoromethoxy)phenyl)-1H-1,2,4-triazol-3-yl)phenyl)butyl)urea], the pest or weed control at 50 µg/cm2 in test [1] and in test [2] was 50 to 100% each time.
On to `Cc1ccc(C(C)C)c(N2C(=O)CS/C2=N\C(=O)N[C@H](C)Cc2ccc(-c3ncn(-c4ccc(OC(F)(F)F)cc4)n3)cc2)c1` [FB45, (R,Z)-1-(3-(2-isopropyl-5-methylphenyl)-4-oxothiazolidin-2-ylidene)-3-(1-(4-(1-(4-(trifluoromethoxy)phenyl)-1H-1,2,4-triazol-3-yl)phenyl)propan-2-yl)urea], for which the pest or weed control at 50 µg/cm2 in test [1] and in test [2] was 50 to 100% in each case.
Take `CC(C)c1ccc(Cl)cc1N1C(=O)CS/C1=N\C(=O)NCCc1ccc(-c2ncn(-c3ccc(C(F)(F)F)cc3)n2)cc1` [FB50, (Z)-1-(3-(5-chloro-2-isopropylphenyl)-4-oxothiazolidin-2-ylidene)-3-(4-(1-(4-(trifluoromethyl)phenyl)-1H-1,2,4-triazol-3-yl)phenethyl)urea]: the pest or weed control at 50 µg/cm2 in test [1] and in test [2] was 50 to 100% throughout.
For `Cc1ccc(C(C)C)c(N2C(=O)CS/C2=N\C(=O)NC(C)(C)Cc2ccc(-c3ncn(-c4ccc(OC(F)(F)F)cc4)n3)cc2)c1` [FB52, (Z)-1-(3-(2-isopropyl-5-methylphenyl)-4-oxothiazolidin-2-ylidene)-3-(2-methyl-1-(4-(1-(4-(trifluoromethoxy)phenyl)-1H-1,2,4-triazol-3-yl)phenyl)propan-2-yl)urea], the pest or weed control at 50 µg/cm2 in test [1] and in test [2] was 50 to 100% throughout.
For the compound `CCc1ccc(C)cc1N1/C(=N/C(=O)NCCc2ccc(-c3ncn(-c4ccc(OC(F)(F)F)cc4)n3)cc2)SCC1C` (stereo not drawn) [FB55, (Z)-1-(3-(2-ethyl-5-methylphenyl)-4-methylthiazolidin-2-ylidene)-3-(4-(1-(4-(trifluoromethoxy)phenyl)-1H-1,2,4-triazol-3-yl)phenethyl)urea], the pest or weed control at 50 µg/cm2 in test [1] and in test [2] was 50 to 100% throughout.
Regarding `Cc1ccc(C(C)C)c(N2C(=O)C(F)S/C2=N\C(=O)NCCc2ccc(-c3ncn(-c4ccc(OC(F)(F)F)cc4)n3)cc2)c1` (stereo not drawn) [FB64, (Z)-1-(5-fluoro-3-(2-isopropyl-5-methylphenyl)-4-oxothiazolidin-2-ylidene)-3-(4-(1-(4-(trifluoromethoxy)phenyl)-1H-1,2,4-triazol-3-yl)phenethyl)urea], the pest or weed control at 50 µg/cm2 in test [1] and in test [2] was 50 to 100% throughout.
As to `CCS/C(=N\C(=O)NCCc1ccc(-c2ncn(-c3ccc(OC(F)(F)F)cc3)n2)cc1)Nc1cc(C)ccc1C(C)C` [FB66, (Z)-ethyl N-(2-isopropyl-5-methylphenyl)-N′-((4-(1-(4-(trifluoromethoxy)phenyl)-1H-1,2,4-triazol-3-yl)phenethyl)carbamoyl)carbamimidothioate], the pest or weed control at 50 µg/cm2 in test [1] and in test [2] was 50 to 100% each time.
For the compound `Cc1ccc(C(C)C)c(N2C(=O)C(C)(C)S/C2=N\C(=O)NCCc2ccc(-c3ncn(-c4ccc(OC(F)(F)F)cc4)n3)cc2)c1` [FB68, (Z)-1-(3-(2-isopropyl-5-methylphenyl)-5,5-dimethyl-4-oxothiazolidin-2-ylidene)-3-(4-(1-(4-(trifluoromethoxy)phenyl)-1H-1,2,4-triazol-3-yl)phenethyl)urea], the pest or weed control at 50 µg/cm2 in test [1] and in test [2] was 50 to 100% each time.
Turning to `Cc1ccc(C(C)C)c(N2C(=O)C3(CC3)S/C2=N\C(=O)NCCc2ccc(-c3ncn(-c4ccc(OC(F)(F)F)cc4)n3)cc2)c1` [FB69, (Z)-1-(6-(2-isopropyl-5-methylphenyl)-7-oxo-4-thia-6-azaspiro[2.4]heptan-5-ylidene)-3-(4-(1-(4-(trifluoromethoxy)phenyl)-1H-1,2,4-triazol-3-yl)phenethyl)urea], the pest or weed control at 50 µg/cm2 in test [1] and in test [2] was 50 to 100% in each case.
In the case of `Cc1ccc(C(C)C)c(N2C(=O)C(C(C)(C)O)S/C2=N\C(=O)NCCc2ccc(-c3ncn(-c4ccc(OC(F)(F)F)cc4)n3)cc2)c1` (stereo not drawn) [FB72, (Z)-1-(5-(2-hydroxypropan-2-yl)-3-(2-isopropyl-5-methylphenyl)-4-oxothiazolidin-2-ylidene)-3-(4-(1-(4-(trifluoromethoxy)phenyl)-1H-1,2,4-triazol-3-yl)phenethyl)urea], the pest or weed control at 50 µg/cm2 in test [1] and in test [2] was 50 to 100% each time.
Turning to `Cc1ccccc1N1C(=O)CS/C1=N\C(=O)NCc1ccc(-c2ncn(-c3ccc(OC(F)(F)F)cc3)n2)cc1` [P1, (Z)-1-(4-oxo-3-(o-tolyl)thiazolidin-2-ylidene)-3-(4-(1-(4-(trifluoromethoxy)phenyl)-1H-1,2,4-triazol-3-yl)benzyl)urea], the mortality at 50 µg/cm2 in test [1] and in test [2] was 50 to 100% each time.
For the compound `CCc1ccccc1N1C(=O)CS/C1=N\C(=O)NCc1ccc(-c2ncn(-c3ccc(OC(F)(F)F)cc3)n2)cc1` [P2, P532, (Z)-1-(3-(2-ethylphenyl)-4-oxothiazolidin-2-ylidene)-3-(4-(1-(4-(trifluoromethoxy)phenyl)-1H-1,2,4-triazol-3-yl)benzyl)urea], the mortality at 50 µg/cm2 in test [1] and in test [2] was 50 to 100% in each case.
With `CC(C)c1cc(F)ccc1N1C(=O)CS/C1=N\C(=O)NCc1ccc(-c2ncn(-c3ccc(OC(F)(F)F)cc3)n2)cc1` [P3, P1172, (Z)-1-(3-(4-fluoro-2-isopropylphenyl)-4-oxothiazolidin-2-ylidene)-3-(4-(1-(4-(trifluoromethoxy)phenyl)-1H-1,2,4-triazol-3-yl)benzyl)urea], the mortality at 50 µg/cm2 in test [1] and in test [2] was 50 to 100% each time.
`Cc1ccc(N2C(=O)CS/C2=N\C(=O)NCc2ccc(-c3ncn(-c4ccc(OC(F)(F)F)cc4)n3)cc2)c(C(C)C)c1` [P5, (Z)-1-(3-(2-isopropyl-4-methylphenyl)-4-oxothiazolidin-2-ylidene)-3-(4-(1-(4-(trifluoromethoxy)phenyl)-1H-1,2,4-triazol-3-yl)benzyl)urea]: the mortality at 50 µg/cm2 in test [1] and in test [2] was 50 to 100% in each case.
For the compound `COc1ccc(N2C(=O)CS/C2=N\C(=O)NCc2ccc(-c3ncn(-c4ccc(OC(F)(F)F)cc4)n3)cc2)c(C)c1` [P6, (Z)-1-(3-(4-methoxy-2-methylphenyl)-4-oxothiazolidin-2-ylidene)-3-(4-(1-(4-(trifluoromethoxy)phenyl)-1H-1,2,4-triazol-3-yl)benzyl)urea], the mortality at 50 µg/cm2 in test [1] and in test [2] was 50 to 100% in each case.
For `CCc1ccc(C)cc1N1C(=O)CS/C1=N\C(=O)NCc1ccc(-c2ncn(-c3ccc(OC(F)(F)F)cc3)n2)cc1` [P7, (Z)-1-(3-(2-ethyl-5-methylphenyl)-4-oxothiazolidin-2-ylidene)-3-(4-(1-(4-(trifluoromethoxy)phenyl)-1H-1,2,4-triazol-3-yl)benzyl)urea], the mortality at 50 µg/cm2 in test [1] and in test [2] was 50 to 100% in each case.
On to `CCCc1ccc(C)cc1N1C(=O)CS/C1=N\C(=O)NCc1ccc(-c2ncn(-c3ccc(OC(F)(F)F)cc3)n2)cc1` [P8, P852, (Z)-1-(3-(5-methyl-2-propylphenyl)-4-oxothiazolidin-2-ylidene)-3-(4-(1-(4-(trifluoromethoxy)phenyl)-1H-1,2,4-triazol-3-yl)benzyl)urea], for which the mortality at 50 µg/cm2 in test [1] and in test [2] was 50 to 100% each time.
Take `CC(C)c1ccccc1N1C(=O)CS/C1=N\C(=O)NCc1ccc(-c2ncn(-c3ccc(C(F)(F)F)cc3)n2)cc1` [P14, (Z)-1-(3-(2-isopropylphenyl)-4-oxothiazolidin-2-ylidene)-3-(4-(1-(4-(trifluoromethyl)phenyl)-1H-1,2,4-triazol-3-yl)benzyl)urea]: the mortality at 50 µg/cm2 in test [1] and in test [2] was 50 to 100% in each case.
Regarding `Cc1ccc(N2C(=O)CS/C2=N\C(=O)NCc2ccc(-c3ncn(-c4ccc(C(F)(F)F)cc4)n3)cc2)c(C(C)C)c1` [P15, (Z)-1-(3-(2-isopropyl-4-methylphenyl)-4-oxothiazolidin-2-ylidene)-3-(4-(1-(4-(trifluoromethyl)phenyl)-1H-1,2,4-triazol-3-yl)benzyl)urea], the mortality at 50 µg/cm2 in test [1] and in test [2] was 50 to 100% each time.
Take `Cc1ccc(C(C)C)c(N2/C(=N/C(=O)NCCc3ccc(-c4ncn(-c5ccc(OC(F)(F)F)cc5)n4)cc3)SCC2C)c1` (stereo not drawn) [P58, (Z)-1-(3-(2-isopropyl-5-methylphenyl)-4-methylthiazolidin-2-ylidene)-3-(4-(1-(4-(trifluoromethoxy)phenyl)-1H-1,2,4-triazol-3-yl)phenethyl)urea]: the mortality at 50 µg/cm2 in test [1] and in test [2] was 50 to 100% throughout.
